Test results published in patent US20240168030A1, “DIRECT FLUORESCENT GLYCAN LABELING” (BIO-TECHNE CORPORATION, priority 2019, published 2024).

What was measured:
FUT8 = target: T1, FUT8 (Homo sapiens, UniProt Q9BYC5); assay: Fluorescent labeling with fluorophore-conjugated fucose by FUT8; type: biochemical; parameters: key to Tolerance of the fluorophore by FUT8: +++: indicated by number of + signs; ++: indicated by number of + signs; indicated by number of + signs; conditions: for Incorporation of conjugated fucose into antibodies by FUT8: Cantuzumab (FUT8 knockout cells) and NIST mAb 8671, FIG. 10A; for Tolerance of the fluorophore by FUT8: fluorophore-conjugated fucose donor, acceptor core GlcNAc of N-glycans, labeled Cantuzumab in FIG. 10
T1 construct: purchased Bio-Techne (Minneapolis, MN)
T1 sequence (Q9BYC5 1-575): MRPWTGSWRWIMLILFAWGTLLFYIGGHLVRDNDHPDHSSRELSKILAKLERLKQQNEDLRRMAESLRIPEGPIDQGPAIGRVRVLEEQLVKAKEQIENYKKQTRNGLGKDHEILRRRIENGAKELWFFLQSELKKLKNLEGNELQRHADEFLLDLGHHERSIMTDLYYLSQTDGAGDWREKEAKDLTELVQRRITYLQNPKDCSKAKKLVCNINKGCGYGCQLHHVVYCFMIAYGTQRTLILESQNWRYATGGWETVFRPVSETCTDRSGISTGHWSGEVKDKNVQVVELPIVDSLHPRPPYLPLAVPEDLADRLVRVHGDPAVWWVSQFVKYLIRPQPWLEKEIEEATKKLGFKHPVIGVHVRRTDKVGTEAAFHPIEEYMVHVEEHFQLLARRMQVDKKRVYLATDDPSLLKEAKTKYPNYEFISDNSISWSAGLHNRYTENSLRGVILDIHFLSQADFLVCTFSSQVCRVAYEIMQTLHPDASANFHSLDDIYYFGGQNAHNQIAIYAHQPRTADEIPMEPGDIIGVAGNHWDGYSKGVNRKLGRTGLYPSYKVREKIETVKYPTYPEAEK
Text: FIG. 10A-FIG. 10D show exemplary results of probing core-6 fucosylation on antibodies by FUT8 incorporation of fluorophores. FIG. 10A. Results of probing substrate glycans of FUT8 (F8) and FUT9 (F9) on Cantuzumab, an anti-Muc1 therapeutic antibody, and NIST reference mAb 8671 using guanosine 5′-diphosphate activated Alexa-Fluor®555 conjugated fucose (GDP-AF555-Fuc) (555), GDP-Cy5-fucose (Cy5), and guanosine 5′-diphosphate activated Alexa-Fluor®488 conjugated fucose (GDP-AF488-Fuc) (488) as donor substrates. Cantuzumab was expressed in FUT8 knockout cells and is devoid of core-6 fucose. Molecular marker (MM) is a prestained Western molecular marker (Bio-Rad Laboratories, Hercules, CA). […] The product of each reaction was separated using SDS-PAGE and imaged with trichloroethanol (TCE) staining (upper panel) and fluorescent imager (lower panel). Labeling on the light chains of the antibodies by Alexa-Fluor®555 is likely the result of non-specific staining due to the use of unpurified GDP-AF555-Fuc that contained free Alexa-Fluor®555. FIG. 10B. […] FIG. 10C. […] FIG. 10D. Schematics of the glycan structures analyzed in FIG. 10B and FIG. 10C.
(§1) For a typical labeling reaction, 1 μg to 5 μg target protein was mixed with 0.2 nmol GDP-f-Fuc and 0.2 μg of a fucosyltransferase in 30 μL buffer of 25 mM Tris pH 7.5, 10 mM MnCl2. The mixture was incubated at 37° C. for 30 minutes. The reaction was then separated by sodium dodecyl sulfate—polyacrylamide gel electrophoresis (SDS-PAGE) and the gel was directly imaged using a fluorescent imager FluorChem M ProteinSimple, Bio-Techne, Minneapolis, MN), followed by imaging with traditional protein imaging methods such as silver staining or trichloroethanol (TCE) staining.
Although FUT8 was known to tolerate azido-fucose (Wu et al. Biochem Biophys Res Commun 473, 524-529 (2016)), it was unknown whether FUT8 could tolerate a fluorophore-conjugated fucose. To test whether FUT8 could tolerate the fluorophore-conjugated fucose and detect its substrate glycans, two substrates were used: Cantuzumab was prepared from a FUT8 knockout cell line, and a reference monoclonal antibody from the National Institute of Standards and Technology (NIST mAb, material 8671, Gaithersburg, MD). The NIST mAb is a humanized IgG1κ monoclonal antibody (Kashi et al. MAbs 10, 922-933 (2018)). IgG antibodies are known to contain an N-glycan site on their heavy chains (Reusch et al. Glycobiology 25, 1325-1334 (2015)).

FUT2 = target: T2, FUT2 (Homo sapiens, UniProt Q10981); assay: Fluorescent labeling with fluorophore-conjugated fucose by FUT2; type: biochemical; parameters: key to Tolerance of the fluorophore by FUT2: +++: indicated by number of + signs; ++: indicated by number of + signs; indicated by number of + signs; conditions: for Tolerance of the fluorophore by FUT2: fluorophore-conjugated fucose donor, acceptor terminal Gal of lactosamine, fluorescent intensity of labeled fetuin or asialofetuin in FIG. 9
T2 construct: purchased Bio-Techne (Minneapolis, MN)
T2 sequence (Q10981 1-343): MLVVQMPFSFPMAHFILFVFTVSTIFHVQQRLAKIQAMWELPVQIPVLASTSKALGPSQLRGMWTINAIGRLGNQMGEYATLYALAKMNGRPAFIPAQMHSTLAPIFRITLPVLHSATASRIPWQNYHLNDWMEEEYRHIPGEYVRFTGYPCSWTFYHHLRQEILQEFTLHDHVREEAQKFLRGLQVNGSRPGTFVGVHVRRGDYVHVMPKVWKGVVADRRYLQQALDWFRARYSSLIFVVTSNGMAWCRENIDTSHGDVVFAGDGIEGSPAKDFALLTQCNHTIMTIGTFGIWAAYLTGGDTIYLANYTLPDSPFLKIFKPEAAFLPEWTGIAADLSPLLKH
Protocol: FIG. 9A-FIG. 9B show exemplary results of probing substrate glycans of various fucosyltransferases on fetuin and asialofetuin. FIG. 9A. Probing substrate glycans of fucosyltransferases with guanosine 5′-diphosphate activated Cy5 conjugated fucose (GDP-Cy5-Fuc). […] FUT9 labeled itself (indicated by an arrow in the gel). FIG. 9B. Tolerance of Alexa-Fluor®555 (555), Alexa-Fluor®488 (488), and Cy5 by the indicated fucosyltransferases. All reactions were incubated at 37° C. for 30 minutes and then separated on SDS-PAGE and imaged with silver staining (upper panels) and fluorescent imager (lower panels). M, molecular marker.
as §1
The four enzymes tolerated the three fluorophores to different levels.

Row | Substance | Incorporation of conjugated fucose into antibodies by FUT8 (FUT8) | Tolerance of the fluorophore by FUT8 (FUT8) | Tolerance of the fluorophore by FUT2 (FUT2) | Fluorophore preference of FUT2 (FUT2; among Cy5-, AlexaFluor® 488-, and AlexaFluor® 555-conjugated fucoses, FIG. 9B)
1 | guanosine 5′-diphosphate activated Alexa-Fluor®488 conjugated fucose [GDP-AF488-Fuc] | introduced into Cantuzumab but not to NIST mAb | ++ | + | –
2 | guanosine 5′-diphosphate activated Alexa-Fluor®555 conjugated fucose [GDP-AF555-Fuc] | introduced into Cantuzumab but not to NIST mAb | ++ | +++ | preferred
